Results published in US20190046600A1, “COMPOSITIONS AND USES THEREOF” (priority 2016, published 2019).
Square brackets hold non-standard residues; d marks the D form. Ends that are not written are not given here. Peptide text beside a SMILES is read from it. Phe(4-guanidino) = N=C(N)Nc1ccc(C[C@H](N)C(=O)O)cc1; Abu(4-SO3H) = N[C@@H](CCS(=O)(=O)O)C(=O)O

What was measured:
human cancer cell lines = settings: cited from earlier work; for bio-activity of cyclic peptide (active / inactive): PRGPRP warhead combined with non-amphiphilic backbone
NCI-H460 cells [1] = settings: 96 h
Method: Methods measuring cell viability include the use of alamarBlue® cell viability reagent (Life Technologies, Inc.) (resazurin) with fluorescence detection.
1) NCI-H460 cells were grown in Ham's F12 media supplemented with 10% FBS. 2) Cells were harvested and seeded into 96-well plates at 500 cells/well. 3) Compounds were made up from stock solutions and added directly to cells in doubling dilutions starting at 200 μM. Final DMSO concentration was 0.2%. 4) Cells were grown with compound for 96 hours at 37° C. 5% CO2 in a humidified atmosphere. 5) A resazurin dye composition (AlamarBlue® cell viability reagent (Life Technologies, Inc.)) 10% (v/v) was then added and incubated for a further 4 hours, and fluorescent product detected using the BMG FLUOstar plate reader. 6) Media only background readings were subtracted before data were analysed using a 4-parameter logistic equation in GraphPad Prism.

NCI-H460 cells [2] = experiment: HILR-001 with or without 30 nM Olaparib on NCI-H460, alamarBlue and CellTiter-Glo time course; assay type: cell-based, human; settings: HILR-001 as single agent, particularly evident at later time points
Method: At each time point cell viability was measured by two assay readouts, alamarBlue® and CellTiter-Glo. Conversion of alamarBlue® to a fluorescent product serves as a readout of the metabolic activity of cells, whereas CellTiter-Glo is based on quantification of the ATP present.
2) Cells were harvested and seeded into 96-well plates at 500 cells/well. 3) HILR-001 was made up from a 10 mM stock solution and added directly to cells in doubling dilutions starting at 200 μM. […] The total final DMSO concentration was 0.25%. 4) Cells were grown with compound for 24, 48, 72 or 96 hours at 37° C. 5% CO2 in a humidified atmosphere. 5) AlamarBlue® 10% (v/v) was then added and incubated for a further 4 hours, and fluorescent product detected using the BMG FLUOstar plate reader. 6) On duplicate plates the media was removed from the cells, CellTiter-Glo was diluted in PBS (1:10) and 100 μl added to the cells. 7) Plates were mixed on an orbital shaker for 2 minutes and incubated for a further 10 minutes at room temperature. Luminescent signal was then measured using the BMG FLUOstar plate reader.

[3] = system: NCI-H460 human non-small cell lung cancer cells; settings: amphiphilic backbones of different length and composition; cited from earlier work
[4] = system: NCI-H460 human non-small-cell lung cancer cells; experiment: Cell survival with or without 2-deoxyglucose, alamarBlue; assay type: cell-based; settings: combination with 3.125 mmol 2-DOG versus alone
From the text: Since the compounds according to the invention appeared to be causing cell death by necrosis as a result of NAD/ATP depletion, it was hypothesised that their activity could be potentiated by administering the compounds with a glycolysis inhibitor. The cell killing ability of HILR-025 (SEQ ID NO: 15) and HILR-D-07 sodium salt (SEQ ID NO: 30) in the presence and absence of the glycolysis inhibitor 2-deoxyglucose (2-DOG) was therefore assayed.
NCI-H460 human non-small-cell lung cancer cells were contacted with HILR-025 or HILR-D-07 alone or in combination with 3.125 mmol 2-DOG and cell survival was determined using AlamaBlue® cell viability reagent (Life Technologies, Inc.) in accordance with the manufacturer's instructions.

[5] = system: NCI H460 Human Non-small cell lung cancer; experiment: Light microscopy of treated cell cultures; assay type: cell-based; settings: versus DMSO control
Method: To investigate further the mechanism of action of the anionic warhead, cultures of NCI H460 Human Non-small cell lung cancer were exposed to HILR-025 and HILR-D-07 and observed using light microscopy. A comparative cell culture was treated with DMSO to provide a negative control.

[6] = system: Lactate Dehydrogenase A [LDHA]; experiment: LDH activity assay on lysates of treated NCI-H460 cells (Abcam ab102526); assay type: cell-based, human; settings: NCI-H460 cells treated 24 h or 96 h, normalised to protein; read-out: IC50 for inhibiting the activity of LDH
Method: An LDH activity assay was conducted on samples derived from NCI-H460 cells treated with 2 test compounds (HILR-025 and HILR-030) for either 24h or 96h. […] Therefore a BCA assay was conducted to estimate the total amount of protein present in each LDH assay lysate and this was used to normalise the enzyme activity data. As an indication of cell viability, an Alamar blue assay was also carried out at both timepoints, to serve as an additional point of reference.
2) Cells were harvested and seeded into 96-well plates at either 500 cells/well (for the 96h timepoint) or 5000 cells/well for the 24h timepoint. […] 6) At the end of the assay (24 or 96h), Alamar blue 10% (v/v) was added to one set of plates, incubated for a further 4 hours, and fluorescent product detected using the BMG FLUOstar plate reader. […] 10) LDH activity was measured in the cleared lysates using an LDH activity kit (Abcam, ab102526). 11) After preparation of the LDH activity assay reactions, according to the manufacturer's instructions, absorbance at 450 nm was measured at the initial time to determine (A450)initial 12) Further absorbance readings were taken at 3 minute intervals for up to 15 minutes. […] 16) The LDH activity of each sample was determined by the following equation:
[formula] […] Protein content in remaining cleared lysates was determined using a BCA assay (ThermoScientific). • b. Data were analysed using GraphPad Prism. […]

Compound: CC(C)C[C@@H]1NC(=O)[C@H](C)NC(=O)[C@H](C(C)C)NC(=O)[C@@H]2CCCN2C(=O)[C@H](CCCNC(=N)N)NC(=O)[C@@H]2CCCN2C(=O)CNC(=O)[C@H](CCCNC(=N)N)NC(=O)[C@@H]2CCCN2C(=O)[C@H](CC(C)C)NC(=O)[C@H](C)NC(=O)[C@H](CC(C)C)NC(=O)[C@H](CCCCN)NC(=O)[C@H](CC(C)C)NC(=O)[C@H](C)NC(=O)[C@H](CC(C)C)NC(=O)[C@H](CCCCN)NC1=O [HILR-001] (cyclo(PRGPRPVALKLALKLAL))
- selective killing of human cancer cell lines (human cancer cell lines): selectively killed a wide range of human cancer cell lines
- IC50 (NCI-H460 cells [1]): 98 µM
- metabolic activity (alamarBlue) (NCI-H460 cells [2]): dose dependent decrease
- killing NCI-H460 cells (active / inactive) [3]: ACTIVE

Compound: CC(C)[C@@H]1NC(=O)[C@@H]2CCCN2C(=O)[C@H](CCCNC(=N)N)NC(=O)[C@@H]2CCCN2C(=O)CNC(=O)[C@H](CCCNC(=N)N)NC(=O)[C@@H]2CCCN2C(=O)[C@H](Cc2c[nH]c3ccccc23)NC(=O)[C@H](Cc2c[nH]c3ccccc23)NC(=O)[C@H](CCCNC(=N)N)NC(=O)[C@H](CCCNC(=N)N)NC(=O)[C@H](Cc2c[nH]c3ccccc23)NC(=O)[C@H](Cc2c[nH]c3ccccc23)NC(=O)[C@H](CCCNC(=N)N)NC(=O)[C@H](CCCNC(=N)N)NC(=O)[C@H](Cc2c[nH]c3ccccc23)NC(=O)[C@H](Cc2c[nH]c3ccccc23)NC1=O [HILR-025] (cyclo(PRGPRPVWWRRWWRRWW))
- cell killing ability with 2-DOG [4]: enhanced by co-administration with 2-DOG
- cell morphology [5]: Ring-shaped morphology
- IC50 (NCI-H460 cells [1]): 15 µM
- IC50 [6]: 16 µM

Compound: Cyc-[AAAGGGPRGPRPGGGAAA] (cyclic; Cyclic peptide; (1)..(18) cyclic peptide) [SEQ ID NO: 6]
- bio-activity of cyclic peptide (active / inactive) (human cancer cell lines): SEQ ID NO: 6: Cyc-[AAAGGGPRGPRPGGGAAA]INACTIVE

Compound: Cyc-[PRGPRPVKLALKLALKFP] (cyclic; cyclic peptide; (1)..(18) cyclic peptide) [THR53]
- selective killing of human cancer cell lines (human cancer cell lines): selectively killed a wide range of human cancer cell lines
- killing NCI-H460 cells (active / inactive) [3]: ACTIVE

Compound: Cyc-[GGGGGGPRGPRPGGGGGG] [SEQ ID NO: 7] (cyclic; cyclic peptide; (1)..(18) cyclic peptide)
- bio-activity of cyclic peptide (active / inactive) (human cancer cell lines): SEQ ID NO: 7: Cyc-[GGGGGGPRGPRPGGGGGG]INACTIVE

Compound: Cyc-[PRGPRPvalklalkalal] [THR79]
- selective killing of human cancer cell lines (human cancer cell lines): selectively killed a wide range of human cancer cell lines

Compound: cyclo-[Pro-Hca-Gly-Pro-Hca-Pro-Val-Trp-Trp-Gpa-Gpa-Trp-Trp-Gpa-Gpa-Trp-Trp] (cyclo(P[Abu(4-SO3H)]GP[Abu(4-SO3H)]PVWW[Phe(4-guanidino)][Phe(4-guanidino)]WW[Phe(4-guanidino)][Phe(4-guanidino)]WW); SMILES CC(C)[C@@H]1NC(=O)[C@@H]2CCCN2C(=O)[C@H](CCS(=O)(=O)O)NC(=O)[C@@H]2CCCN2C(=O)CNC(=O)[C@H](CCS(=O)(=O)O)NC(=O)[C@@H]2CCCN2C(=O)[C@H](Cc2c[nH]c3ccccc23)NC(=O)[C@H](Cc2c[nH]c3ccccc23)NC(=O)[C@H](Cc2ccc(NC(=N)N)cc2)NC(=O)[C@H](Cc2ccc(NC(=N)N)cc2)NC(=O)[C@H](Cc2c[nH]c3ccccc23)NC(=O)[C@H](Cc2c[nH]c3ccccc23)NC(=O)[C@H](Cc2ccc(NC(=N)N)cc2)NC(=O)[C@H](Cc2ccc(NC(=N)N)cc2)NC(=O)[C@H](Cc2c[nH]c3ccccc23)NC(=O)[C@H](Cc2c[nH]c3ccccc23)NC1=O) [HILR-D-07]
- cell killing ability with 2-DOG [4]: enhanced by co-administration with 2-DOG
- cell morphology [5]: Ring-shaped morphology

Compound: Cyc-[GGGGGGPRGPRPGGGGGG] [SEQ ID NO: 8] (cyclic; cyclic peptide; (1)..(18) cyclic peptide)
- bio-activity of cyclic peptide (active / inactive) (human cancer cell lines): SEQ ID NO: 8: Cyc-[GGGGGGPRGPRPGGGGGG]INACTIVE

Compound: Cyc-[AAGPGGPRGPRPGGPGAA] (cyclic; cyclic peptide; (1)..(18) cyclic peptide) [SEQ ID NO: 9]
- bio-activity of cyclic peptide (active / inactive) (human cancer cell lines): SEQ ID NO: 9: Cyc-[AAGPGGPRGPRPGGPGAA]INACTIVE

Compound: Cyc-[PRGPRPVKLALKLALKLAL] (cyclic; cyclic peptide; (1)..(19) cyclic peptide) [THR52]
- killing NCI-H460 cells (active / inactive) [3]: INACTIVE

Compound: CC(C)[C@@H]1NC(=O)[C@@H]2CCCN2C(=O)[C@H](CCS(=O)(=O)O)NC(=O)[C@@H]2CCCN2C(=O)CNC(=O)[C@H](CCS(=O)(=O)O)NC(=O)[C@@H]2CCCN2C(=O)[C@H](Cc2c[nH]c3ccccc23)NC(=O)[C@H](Cc2c[nH]c3ccccc23)NC(=O)[C@H](CCCNC(=N)N)NC(=O)[C@H](CCCNC(=N)N)NC(=O)[C@H](Cc2c[nH]c3ccccc23)NC(=O)[C@H](Cc2c[nH]c3ccccc23)NC(=O)[C@H](CCCNC(=N)N)NC(=O)[C@H](CCCNC(=N)N)NC(=O)[C@H](Cc2c[nH]c3ccccc23)NC(=O)[C@H](Cc2c[nH]c3ccccc23)NC1=O [HILR-D-06] (cyclo(P[Abu(4-SO3H)]GP[Abu(4-SO3H)]PVWWRRWWRRWW))
- IC50 (NCI-H460 cells [1]): 25 µM

Compound: -Pro-Glu-Gly-Pro-Glu-Pro- (PEGPEP; not fully specified; printed as -Pro-Glu-Gly-Pro-Glu-Pro-) [anionic hexapeptide, comparative peptide]
- activity of anionic hexapeptide (human cancer cell lines; linear hexapeptide, earlier study): inactive

Compound: CC(C)[C@@H]1NC(=O)[C@@H]2CCCN2C(=O)[C@H](CCC(=O)O)NC(=O)[C@@H]2CCCN2C(=O)CNC(=O)[C@H](CCC(=O)O)NC(=O)[C@@H]2CCCN2C(=O)[C@H](Cc2c[nH]c3ccccc23)NC(=O)[C@H](Cc2c[nH]c3ccccc23)NC(=O)[C@H](CCCNC(=N)N)NC(=O)[C@H](CCCNC(=N)N)NC(=O)[C@H](Cc2c[nH]c3ccccc23)NC(=O)[C@H](Cc2c[nH]c3ccccc23)NC(=O)[C@H](CCCNC(=N)N)NC(=O)[C@H](CCCNC(=N)N)NC(=O)[C@H](Cc2c[nH]c3ccccc23)NC(=O)[C@H](Cc2c[nH]c3ccccc23)NC1=O [HILR-D-02] (cyclo(PEGPEPVWWRRWWRRWW))
- IC50 (NCI-H460 cells [1]): 38 µM
